Laboratory results as given in publication PMC6941172 (Journal of medicinal chemistry, 2018).
Entries after “also recorded” stand apart in the source; their conditions may differ.

Key:
[1] = Microsomal stability assay, human liver microsomes; assay type: in vitro ADME; details: for Increase in half-life (HLM) relative to parent ligand: vs respective parent (8a, 8i, 8n or 8k)
[2] = Pharmacokinetic study, IP 10 mg/kg, plasma and brain; assay type: in vivo, rat; details: rats
[3] = Microsomal stability assay, mouse liver microsomes; assay type: in vitro ADME; details: for Increase in half-life (MLM) relative to parent ligand: vs respective parent (8a, 8i, 8n or 8k)
HEK293 (kidney) cells = test: Cytotoxicity assay; assay type: cell-based, human; details: HEK293, up to 400 μM, 48 hours
HEPG2 (liver) cells = test: Cytotoxicity assay; assay type: cell-based, human; details: HEPG2, up to 400 μM, 48 hours
GABAAR α6β3γ2 subtype = GABAAR α6β3γ2 subtype (Rattus norvegicus, UniProt P18508+P30191+P63079); test: Electrophysiological assay in Xenopus oocytes, modulation of GABA EC3 currents; assay type: cell-based
GABAAR α6β3γ2 subtype, sequence (P30191 20-453): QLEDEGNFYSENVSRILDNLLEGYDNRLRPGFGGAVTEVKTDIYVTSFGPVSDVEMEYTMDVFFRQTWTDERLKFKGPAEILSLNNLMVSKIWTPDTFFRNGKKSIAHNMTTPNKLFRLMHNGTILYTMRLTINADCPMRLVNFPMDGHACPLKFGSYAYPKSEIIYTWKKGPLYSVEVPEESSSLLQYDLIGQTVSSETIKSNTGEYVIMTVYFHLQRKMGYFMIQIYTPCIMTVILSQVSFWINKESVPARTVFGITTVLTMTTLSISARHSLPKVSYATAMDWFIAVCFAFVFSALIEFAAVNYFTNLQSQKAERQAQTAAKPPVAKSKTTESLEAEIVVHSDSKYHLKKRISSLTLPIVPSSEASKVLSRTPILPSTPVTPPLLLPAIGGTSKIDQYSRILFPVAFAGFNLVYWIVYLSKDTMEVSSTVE
GABAAR α6β3γ2 subtype, sequence (P63079 26-473): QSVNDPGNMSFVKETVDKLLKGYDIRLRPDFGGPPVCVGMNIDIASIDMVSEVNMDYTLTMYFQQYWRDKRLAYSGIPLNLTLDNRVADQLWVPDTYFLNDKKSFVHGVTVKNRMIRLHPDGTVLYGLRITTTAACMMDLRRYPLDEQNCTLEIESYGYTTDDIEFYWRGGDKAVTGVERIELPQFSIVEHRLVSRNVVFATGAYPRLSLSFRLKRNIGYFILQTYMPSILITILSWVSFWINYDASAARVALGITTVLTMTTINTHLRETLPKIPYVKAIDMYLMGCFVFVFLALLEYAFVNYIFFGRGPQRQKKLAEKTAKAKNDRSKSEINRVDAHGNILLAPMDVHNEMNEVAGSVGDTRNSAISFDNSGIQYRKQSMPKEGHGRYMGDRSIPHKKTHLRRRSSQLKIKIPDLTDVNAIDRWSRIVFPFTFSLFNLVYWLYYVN
GABAAR α6β3γ2 subtype, sequence (P18508 39-466): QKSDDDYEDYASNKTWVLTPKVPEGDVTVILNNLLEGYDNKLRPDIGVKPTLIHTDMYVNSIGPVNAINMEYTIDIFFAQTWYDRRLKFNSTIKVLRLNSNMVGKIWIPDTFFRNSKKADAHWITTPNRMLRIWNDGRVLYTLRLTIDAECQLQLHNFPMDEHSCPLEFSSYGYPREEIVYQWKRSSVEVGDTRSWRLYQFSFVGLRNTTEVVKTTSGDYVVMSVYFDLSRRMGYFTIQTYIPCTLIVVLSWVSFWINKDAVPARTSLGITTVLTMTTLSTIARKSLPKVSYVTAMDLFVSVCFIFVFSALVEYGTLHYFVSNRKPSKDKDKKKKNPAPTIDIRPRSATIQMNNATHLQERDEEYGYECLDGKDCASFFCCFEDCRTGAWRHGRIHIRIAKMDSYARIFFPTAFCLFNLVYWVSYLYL

| Compound | Increase in half-life (HLM) relative to parent ligand [1] | Cytotoxicity / cell viability (HEK293 (kidney) cells) | Cytotoxicity / cell viability (HEPG2 (liver) cells) | Efficacy / activity at the α6β3γ2 subtype (in words) (GABAAR α6β3γ2 subtype) | other results |
| --- | --- | --- | --- | --- | --- |
| [2H]C([2H])([2H])Oc1ccc2c3nn(-c4ccc(OC)cc4)c(=O)c-3c[nH]c2c1 [Compound 8c, 7-Methoxy-d3-2-(4-methoxyphenyl)-2,5-dihydro-3H-pyrazolo[4,3-c]quinolin-3-one] | three-fold | – | – | – | Brain concentration (Cmax) compared with parent 8a [2]: almost two-fold increase; Increase in half-life (MLM) relative to parent ligand [3]: four-fold |
| [2H]C([2H])([2H])Oc1ccc(-n2nc3c4ccc(OC([2H])([2H])[2H])cc4[nH]cc-3c2=O)cc1 [Compound 8d, 7-Methoxy-d3-2-(4-methoxy-d3-phenyl)-2,5-dihydro-3H-pyrazolo[4,3-c]quinolin-3-one] | – | – | – | – | Brain concentration (Cmax) compared with parent 8a [2]: almost two-fold increase |
| [2H]C([2H])([2H])Oc1cccc(-n2nc3c4ccc(OC([2H])([2H])[2H])cc4[nH]cc-3c2=O)c1 [Compound 8e, 7-Methoxy-d3-2-(3-methoxy-d3-phenyl)-2,5-dihydro-3H-pyrazolo[4,3-c]quinolin-3-one] | – | no impact on cytotoxicity | no impact on cytotoxicity | – | – |
| [2H]C([2H])([2H])Oc1ccc2c3nn(-c4ccccc4OC([2H])([2H])[2H])c(=O)c-3c[nH]c2c1 [Compound 8f, 7-Methoxy-d3-2-(2-methoxy-d3-phenyl)-2,5-dihydro-3H-pyrazolo[4,3-c]quinolin-3-one] | – | no impact on cytotoxicity | no impact on cytotoxicity | – | – |
| [2H]C([2H])([2H])Oc1ccc(-n2nc3c4ccc(Br)cc4[nH]cc-3c2=O)cc1 [Compound 8o, 7-Bromo-2-(4-methoxy-d3-phenyl)-2,5-dihydro-3H-pyrazolo[4,3-c]quinolin-3-one] | two-fold | – | – | efficacies comparable to 8n | Increase in MLM-mediated half-life ([3]; vs parent 8n): 20% |
| [2H]C([2H])([2H])Oc1ccc(-n2nc3c4ccc(OC)cc4[nH]cc-3c2=O)cn1 [Compound 13b, 7-Methoxy-2-(6-methoxy-d3-pyridin-3-yl)-2,5-dihydro-3H-pyrazolo[4,3-c]quinolin-3-one] | – | – | – | retained some efficacy | – |
| [2H]C([2H])([2H])Oc1ccc(-n2nc3c4cc(Cl)ccc4[nH]cc-3c2=O)cn1 [Compound 13f, 8-Chloro-2-(6-methoxy-d3-pyridin-3-yl)-2,5-dihydro-3H-pyrazolo[4,3-c]quinolin-3-one] | – | – | – | much poorer efficacy | Increased half-life (HLM) ([1]; vs OCH3 N-hetero ligand 13e): 40% |
| COc1ccc(-n2nc3c4ccc(Br)cc4[nH]cc-3c2=O)cn1 [Compound 13g, 7-Bromo-2-(6-methoxypyridin-3-yl)-2,5-dihydro-3H-pyrazolo[4,3-c]quinolin-3-one] | seven-fold | no impact of cell viability | no impact of cell viability | – | Increase in half-life (MLM) relative to parent ligand [3]: seven-fold |
| [2H]C([2H])([2H])Oc1ccc(-n2nc3c4ccc(Br)cc4[nH]cc-3c2=O)cn1 [Compound 13h, 7-Bromo-2-(6-methoxy-d3-pyridin-3-yl)-2,5-dihydro-3H-pyrazolo[4,3-c]quinolin-3-one] | – | – | – | retained some efficacy; also recorded: efficacies comparable to 8n | Increase in metabolic stability in HLM ([1]; vs 8o): 11 fold; Increased stability (HLM half-life) ([1]; vs OCH3 N-hetero ligand 13g): three-fold; Increase in stability in MLM ([3]; vs 8o): 30 fold; Increased stability (MLM half-life) ([3]; vs OCH3 N-hetero ligand 13g): six-fold |
| COc1ccc(-n2nc3c4cnc(OC)cc4[nH]cc-3c2=O)cc1 [Compound 13i, 7-Methoxy-2-(4-methoxyphenyl)-2,5-dihydro-3H-pyrazolo[4,3-c][1,6]naphthyridin-3-one] | – | – | – | retained some efficacy | – |
